How the values were obtained:
Format in all cases: biochemical
ROCK2 [1] = target: T1, ROCK2 (Homo sapiens, UniProt O75116); assay: radiometric […]-ATP P81 filter binding kinase assay, 10-dose IC50 ([…] ATP)
ROCK1 = ROCK1 (Homo sapiens, UniProt Q13464); assay: as above
ROCK2 [2] = target: T1, ROCK2; assay: radiometric […]-ATP kinase assay, single concentration […], percent inhibition

T1 sequence (O75116 whole entry): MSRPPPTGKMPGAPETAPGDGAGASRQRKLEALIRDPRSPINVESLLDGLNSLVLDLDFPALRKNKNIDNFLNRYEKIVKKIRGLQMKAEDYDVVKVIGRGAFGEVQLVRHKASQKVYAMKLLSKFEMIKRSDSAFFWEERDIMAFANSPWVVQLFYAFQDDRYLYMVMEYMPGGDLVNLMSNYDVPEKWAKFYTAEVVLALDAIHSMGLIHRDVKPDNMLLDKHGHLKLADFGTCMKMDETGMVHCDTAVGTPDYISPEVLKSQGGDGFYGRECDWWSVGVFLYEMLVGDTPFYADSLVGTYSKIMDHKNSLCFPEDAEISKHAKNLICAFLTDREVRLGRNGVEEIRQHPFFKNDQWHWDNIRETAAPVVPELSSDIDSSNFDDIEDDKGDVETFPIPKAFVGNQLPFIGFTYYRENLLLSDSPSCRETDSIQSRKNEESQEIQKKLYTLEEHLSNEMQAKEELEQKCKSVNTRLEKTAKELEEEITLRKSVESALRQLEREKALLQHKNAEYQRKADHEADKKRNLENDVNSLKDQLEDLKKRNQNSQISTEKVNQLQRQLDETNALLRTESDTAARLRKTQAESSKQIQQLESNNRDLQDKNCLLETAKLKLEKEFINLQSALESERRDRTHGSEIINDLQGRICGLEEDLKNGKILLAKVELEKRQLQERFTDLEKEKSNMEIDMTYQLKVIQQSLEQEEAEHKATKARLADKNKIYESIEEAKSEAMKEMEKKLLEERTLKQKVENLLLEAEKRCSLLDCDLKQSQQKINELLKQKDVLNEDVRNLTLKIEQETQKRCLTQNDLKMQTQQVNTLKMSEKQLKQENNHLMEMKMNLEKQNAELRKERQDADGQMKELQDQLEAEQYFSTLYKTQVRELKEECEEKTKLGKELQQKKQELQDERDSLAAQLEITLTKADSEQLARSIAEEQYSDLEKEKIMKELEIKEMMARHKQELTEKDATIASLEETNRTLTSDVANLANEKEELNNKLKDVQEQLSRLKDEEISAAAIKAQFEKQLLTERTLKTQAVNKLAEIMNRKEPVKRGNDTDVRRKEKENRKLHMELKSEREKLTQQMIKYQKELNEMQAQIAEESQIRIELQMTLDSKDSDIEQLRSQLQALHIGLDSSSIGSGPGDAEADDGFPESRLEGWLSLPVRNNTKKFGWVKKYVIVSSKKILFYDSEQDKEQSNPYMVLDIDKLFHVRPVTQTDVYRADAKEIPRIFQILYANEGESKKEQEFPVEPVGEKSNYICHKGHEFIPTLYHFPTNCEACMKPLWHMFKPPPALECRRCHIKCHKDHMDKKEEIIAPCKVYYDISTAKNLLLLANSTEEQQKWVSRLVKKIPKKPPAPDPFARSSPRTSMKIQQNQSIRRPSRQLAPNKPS
Sequence of ROCK1 (Q13464 2-1354): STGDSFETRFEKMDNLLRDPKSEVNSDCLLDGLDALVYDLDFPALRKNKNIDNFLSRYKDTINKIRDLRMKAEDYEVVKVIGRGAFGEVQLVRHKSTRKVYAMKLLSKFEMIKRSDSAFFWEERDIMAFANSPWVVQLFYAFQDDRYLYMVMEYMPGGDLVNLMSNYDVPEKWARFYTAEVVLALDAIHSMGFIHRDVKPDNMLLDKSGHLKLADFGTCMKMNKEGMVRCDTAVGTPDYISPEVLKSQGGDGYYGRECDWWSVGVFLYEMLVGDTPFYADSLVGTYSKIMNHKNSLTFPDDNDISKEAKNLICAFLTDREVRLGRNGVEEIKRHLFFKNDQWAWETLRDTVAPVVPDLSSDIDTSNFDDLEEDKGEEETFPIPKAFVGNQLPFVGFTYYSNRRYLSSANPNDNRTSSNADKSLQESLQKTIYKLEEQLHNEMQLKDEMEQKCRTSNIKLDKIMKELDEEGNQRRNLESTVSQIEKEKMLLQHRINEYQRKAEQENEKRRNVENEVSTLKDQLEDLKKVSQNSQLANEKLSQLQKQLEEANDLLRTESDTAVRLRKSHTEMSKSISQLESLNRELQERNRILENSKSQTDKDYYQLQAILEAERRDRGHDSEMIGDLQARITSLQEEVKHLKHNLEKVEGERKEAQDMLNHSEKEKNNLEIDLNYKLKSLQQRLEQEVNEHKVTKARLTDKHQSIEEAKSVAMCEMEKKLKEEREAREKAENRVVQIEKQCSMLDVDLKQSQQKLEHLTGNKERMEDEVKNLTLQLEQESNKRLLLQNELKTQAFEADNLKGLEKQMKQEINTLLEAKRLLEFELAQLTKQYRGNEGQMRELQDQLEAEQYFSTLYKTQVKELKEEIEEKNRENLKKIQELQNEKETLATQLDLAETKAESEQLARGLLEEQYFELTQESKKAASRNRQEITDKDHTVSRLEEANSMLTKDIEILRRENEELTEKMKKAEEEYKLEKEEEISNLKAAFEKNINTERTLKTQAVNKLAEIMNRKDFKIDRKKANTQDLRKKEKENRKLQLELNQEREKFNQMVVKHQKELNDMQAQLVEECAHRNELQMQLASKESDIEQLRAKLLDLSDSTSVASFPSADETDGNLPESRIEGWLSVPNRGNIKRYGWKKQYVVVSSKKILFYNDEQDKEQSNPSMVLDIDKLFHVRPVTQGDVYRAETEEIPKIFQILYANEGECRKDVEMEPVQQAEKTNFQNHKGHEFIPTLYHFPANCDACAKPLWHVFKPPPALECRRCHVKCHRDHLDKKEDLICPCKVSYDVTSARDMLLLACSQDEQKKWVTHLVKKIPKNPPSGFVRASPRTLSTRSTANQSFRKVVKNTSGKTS

IC50 (ROCK2 [1]) [µM] | IC50 (ROCK1) [µM] | inhibition at 10 µM (ROCK2 [2]) [%] | Structure (SMILES)
6.13 | 4.22 | – | Cc1cc(F)ccc1CN1CCCN(S(=O)(=O)c2cccc3cnccc23)CC1 [C-19, 5-[4-(4-Fluoro-2-methyl-benzyl)-[1,4]diazepane-1sulfonyl]-isoquinoline]
– | – | 72.5 | COc1cc(CN2CCCN(C(=O)/C=C/c3ccncc3)CC2)ccc1O [C-22, 1-[4-(4-Hydroxy-3-methoxy-benzyl)-[1,4]diazepan-1-yl]-3-pyridin-4-yl-propenone]
